Results taken from ChEMBL document CHEMBL1201862, “PubChem BioAssay data set” (2004).
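96-well plates; 48 h exposure; 5 concentrations. Endpoints by linear interpolation between flanking doses. Not reached: highest tested concentration assigned. Abbreviation: GI50, concentration required for 50% inhibition of growth.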 Active and inactive are the calls of the source. No stated cut-off is given here; in the data, active = GI50 up to about 1.1 µM and inactive = higher.

What was measured:
Experiment in all cases: NCI tumour cell line growth inhibition, 48 h
A549 = test system: A549
ACHN = test system: ACHN
DU-145 = test system: DU-145
HCT-15 = test system: HCT-15
HOP-92 = test system: HOP-92
HT-29 = test system: HT-29
K562 = test system: K562
M14 = test system: M14
MDA-N = test system: MDA-N
MOLT-4 = test system: MOLT-4
Malme-3M = test system: Malme-3M
NCI-H23 = test system: NCI-H23
OVCAR-4 = test system: OVCAR-4
OVCAR-5 = test system: OVCAR-5
OVCAR-8 = test system: OVCAR-8
RPMI-8226 = test system: RPMI-8226
SF-295 = test system: SF-295
SK-MEL-28 = test system: SK-MEL-28
SK-MEL-5 = test system: SK-MEL-5
SW-620 = test system: SW-620

Compound | GI50 (A549) | GI50 (ACHN) | GI50 (DU-145) | GI50 (HCT-15) | GI50 (HOP-92) | GI50 (HT-29) | GI50 (K562) | GI50 (M14) | GI50 (MDA-N) | GI50 (MOLT-4) | GI50 (Malme-3M) | GI50 (NCI-H23) | GI50 (OVCAR-4) | GI50 (OVCAR-5) | GI50 (OVCAR-8) | GI50 (RPMI-8226) | GI50 (SF-295) | GI50 (SK-MEL-28) | GI50 (SK-MEL-5) | GI50 (SW-620)
CC1=C2c3ccccc3N(S(=O)(=O)c3ccccc3)[C@H]2[C@H](C(=O)N2C3CC4CC[C@@]3(CS2(=O)=O)C4(C)C)CC1 (stereo not given in full) | 35.3 µM (inactive) | 34.3 µM (inactive) | > 100 µM (inactive) | 5.36 µM | 22.5 µM (inactive) | 17.6 µM (inactive) | 7.24 µM (inactive) | 64.4 µM (inactive) | > 10 µM (inactive) | 6.38 µM (inactive) | 28.9 µM (inactive) | 40.6 µM (inactive) | 64 µM (inactive) | > 100 µM (inactive) | 21.6 µM (inactive) | 0.334 µM (active) | 1.71 µM (inactive) | > 100 µM (inactive) | 22.8 µM (inactive) | > 100 µM (inactive)
C#CC(O)/C=C/C(O)CCCC(O)CC#CC(O)C#CC(O)CCCC(O)/C=C/CCCCCC(=O)CCCCCCCCCCCCCC(O)C(O)C#CC(=O)O (stereo not given) | > 50 µM (inactive) | > 50 µM (inactive) | > 50 µM (inactive) | > 50 µM | 13.5 µM (inactive) | 19.3 µM (inactive) | > 50 µM (inactive) | > 50 µM (inactive) | > 50 µM (inactive) | 14 µM (inactive) | > 50 µM (inactive) | > 50 µM (inactive) | 9.02 µM (inactive) | > 50 µM (inactive) | > 50 µM (inactive) | 26.5 µM (inactive) | > 50 µM (inactive) | 12 µM (inactive) | > 50 µM (inactive) | 
Cn1c(=O)c2c(nc(-n3nc(-c4ccc(Cl)cc4)cc3N)n2C)n(C)c1=O | > 100 µM (inactive) | > 100 µM (inactive) | > 100 µM (inactive) | > 100 µM | > 100 µM (inactive) | > 100 µM (inactive) | 67.6 µM (inactive) | > 100 µM (inactive) | > 100 µM (inactive) | 11.6 µM (inactive) | 7.13 µM (inactive) | > 100 µM (inactive) | 5.6 µM (inactive) | 79.8 µM (inactive) | 18.1 µM (inactive) | 69.7 µM (inactive) | 25.5 µM (inactive) | > 100 µM (inactive) | 6.37 µM (inactive) | 
CCNC1(c2cccc(C)c2)OC(C)(C)c2cccc3cccc1c23 (stereo not given) | 15.6 µM (inactive) | 17 µM (inactive) | 17.7 µM (inactive) | 19.6 µM | 3.83 µM (inactive) | 14 µM (inactive) | 11.7 µM (inactive) | 17.8 µM (inactive) | 19.3 µM (inactive) |  | 16.3 µM (inactive) | 17.9 µM (inactive) | 16 µM (inactive) | 19.1 µM (inactive) | 18.4 µM (inactive) | 0.0321 µM (active) | 17.9 µM (inactive) |  | 19.1 µM (inactive) | 17.8 µM (inactive)
O=C(/C=C/c1cc2ccccc2o1)N1CCN(c2ccccn2)CC1 | > 100 µM (inactive) |  | > 100 µM (inactive) | 74.6 µM | 60.5 µM (inactive) | 68.7 µM (inactive) | > 100 µM (inactive) | 71.6 µM (inactive) | > 100 µM (inactive) | 19 µM (inactive) | 79.6 µM (inactive) | > 100 µM (inactive) | 49.8 µM (inactive) | > 100 µM (inactive) | > 100 µM (inactive) | > 100 µM (inactive) | > 100 µM (inactive) | 35.9 µM (inactive) | > 100 µM (inactive) | > 100 µM (inactive)
